Test results published in paper PMC3511435, “A Transposon-Derived DNA Polymerase from Entamoeba histolytica Displays Intrinsic Strand Displacement, Processivity and Lesion Bypass” (PLoS ONE, 2012).

System: T1, EhDNApolB2
T1 construct: N-terminal 153 residues deleted, 660-aa C-terminal exonuclease and polymerase region, pCOLD I vector (IMAC-purified), E. coli BL21 DE3 Rosetta II, 78 kDa
Assay: primer extension on M13mp18 ssDNA, denaturing gel, phosphorimaging
Type: biochemical, Entamoeba histolytica
Conditions: 25 µM dNTPs; 1 nM 32P-labelled 17mer primer / circular M13mp18 ssDNA; 20 nM enzyme; 10 min, 37 °C; read-out: reduced by half at a concentration of

C[C@@]1(CO)[C@H](O)CC[C@@]2(C)[C@H]1CC[C@H]1C[C@@H]3C[C@@]12CC[C@]3(O)CO [aphidicolin]
IC50: 242 µM
